The record followed here is patent US7781565B2 (priority 2006, dated 2010).

Entries after “also recorded” stand apart in the source; their conditions may differ.

The test deals with NCI-60 cell lines. It is filed as cell-based, human.
Consider RIGRVWA, for which the “Cell Line with which the peptide (and its tripeptide motif) is associated” value (from here on “Cell Line with which the peptide”) is listed as “Molt-4-Leukemia”. Turning to GGAGSRR, the “Cell Line the peptide is associated with (peptide recovered from phage library selection on this NCI-60 cell line)” value is recorded as “UO31 Renal”. As for SNHTASL, the “Cell Line (NCI-60 cell line the peptide is associated with)” value is given as “SF-295 CNS”.

For SSVASLV, the “Cell Line (NCI-60 cell line the peptide is associated with)” value is listed as “SNB-19 CNS; also recorded: SF-539 CNS”. Turning to KSGSSVL, the “Cell Line with which the peptide” value is “HL-60-Leukemia”. In the case of ASPPLRS, the “Cell Line (NCI-60 cell line the peptide and its motif are associated with)” value is given as “A498 Renal”. Regarding GLVGGSS, the “Cell Line with which the peptide” value is reported as “H460-Lung”. For the substance RVSGSPV, the “Cell Line the peptide is associated with (peptide recovered from phage library selection on this NCI-60 cell line)” value is reported as “NCI/ADR-RES Breast”.

On to VMDRGVA, for which the “Cell Line (NCI-60 cell line the peptide and its motif are associated with)” value was “UACC 257 Melanoma”. GRLMPGG: the “Cell Line the peptide is associated with (peptide recovered from phage library selection on this NCI-60 cell line)” value is recorded as “ACHN Renal”.

Consider CRGSIGA, for which the “Cell Line the peptide is associated with (peptide recovered from phage library selection on this NCI-60 cell line)” value was “BT-549 Breast”. In the case of FDARGGL, the “Cell Line with which the peptide” value was “CCRF-CEM Leukemia”. For the substance VIVRGSL, the “Cell Line the peptide is associated with (peptide recovered from phage library selection on this NCI-60 cell line)” value is “UO31 Renal”. As to QTLSAGG, the “Cell Line (NCI-60 cell line the peptide is associated with)” value is listed as “SF-295 CNS”. On to RPKLRSV, for which the “Cell Line (NCI-60 cell line the peptide is associated with)” value is on record as “MALME-3M Melanoma”.

For the substance LGGGGLL, the “Cell Line (NCI-60 cell line the peptide is associated with)” value was “KM-12C Colon”. Take QRAAVIV: the “Cell Line (NCI-60 cell line the peptide is associated with)” value is listed as “SNB-19 CNS; also recorded: SF-539 CNS”. As for LPCGGLA, the “Cell Line (NCI-60 cell line the peptide is associated with)” value is recorded as “SNB-19 CNS; also recorded: SF-539 CNS”. On to EGLVSVV, for which the “Cell Line with which the peptide” value is on record as “Molt-4-Leukemia”.

As to TSGRLWV, the “Cell Line (NCI-60 cell line the peptide and its motif are associated with)” value is “M14 Melanoma”. For AWRHAGG, the “Cell Line (NCI-60 cell line the peptide is associated with)” value is listed as “SNB-19 CNS; also recorded: SF-539 CNS”. Turning to VMLLRPE, the “Cell Line with which the peptide” value was “HL-60-Leukemia”. For the substance LTGGLVF, the “Cell Line (NCI-60 cell line the peptide and its motif are associated with)” value is recorded as “DU-145 Prostate”.

Consider RLHYLRS, for which the “Cell Line (NCI-60 cell line the peptide and its motif are associated with)” value is recorded as “M14 Melanoma”. As for HGGPGAV, the “Cell Line (NCI-60 cell line the peptide is associated with)” value was “LOX-IMVI Melanoma”.

For the substance RTGSSDL, the “Cell Line with which the peptide” value is reported as “Hop-92-Lung”. Regarding ADFFGLV, the “Cell Line with which the peptide” value is “RPMI-8226-Leukemia”. Take WRLLRRQ: the “Cell Line with which the peptide” value was “SR Leukemia”.

Consider LGLVFTR, for which the “Cell Line the peptide is associated with (peptide recovered from phage library selection on this NCI-60 cell line)” value is “T-47D Breast”.

As for ASEGGRA, the “Cell Line (NCI-60 cell line the peptide and its motif are associated with)” value is reported as “SK-OV-3-3 Ovarian”. With GGRLRAV, the “Cell Line (NCI-60 cell line the peptide is associated with)” value was “SNB-19 CNS; also recorded: SF-539 CNS”. As to PWGAGVR, the “Cell Line the peptide is associated with (peptide recovered from phage library selection on this NCI-60 cell line)” value was “BT-549 Breast”. Regarding LLSTVWV, the “Cell Line the peptide is associated with (peptide recovered from phage library selection on this NCI-60 cell line)” value is reported as “TK-10 Renal”. Turning to TFRGAGV, the “Cell Line the peptide is associated with (peptide recovered from phage library selection on this NCI-60 cell line)” value was “MDA-MB-231 Breast”.

Turning to FAQRRVS, the “Cell Line the peptide is associated with (peptide recovered from phage library selection on this NCI-60 cell line)” value is given as “SN12C Renal”. As to FGLRNSR, the “Cell Line with which the peptide” value is “HL-60-Leukemia”. On to ASLPMLH, for which the “Cell Line the peptide is associated with (peptide recovered from phage library selection on this NCI-60 cell line)” value is on record as “ACHN Renal”. Turning to RGVGWAK, the “Cell Line with which the peptide” value is listed as “H322-Lung”.

Turning to LFAVAAV, the “Cell Line with which the peptide” value was “Hop-62-Lung”. In the case of ATGRVLG, the “Cell Line with which the peptide” value is given as “Molt-4-Leukemia”.

Regarding NLRGSRS, the “Cell Line (NCI-60 cell line the peptide and its motif are associated with)” value is listed as “SK-MEL-2 Melanoma”. For GLRTRQV, the “Cell Line with which the peptide” value was “Hop-92-Lung”. Consider AWLLSGR, for which the “Cell Line (NCI-60 cell line the peptide and its motif are associated with)” value is listed as “UACC 257 Melanoma”.

Take VLTRAST: the “Cell Line (NCI-60 cell line the peptide is associated with)” value was “HCC-2998-Colon”. Take TQVEARG: the “Cell Line the peptide is associated with (peptide recovered from phage library selection on this NCI-60 cell line)” value is “HS 578 T Breast”. Consider ERASQTA, for which the “Cell Line with which the peptide” value was “K-562-Leukemia”. Consider ISGVSDD, for which the “Cell Line the peptide is associated with (peptide recovered from phage library selection on this NCI-60 cell line)” value is listed as “BT-549 Breast”. GRVDPVD: the “Cell Line the peptide is associated with (peptide recovered from phage library selection on this NCI-60 cell line)” value is on record as “T-47D Breast”. Take LCDAGPS: the “Cell Line (NCI-60 cell line the peptide is associated with)” value is listed as “HCT-116 Colon”. Turning to LLSRRVG, the “Cell Line (NCI-60 cell line the peptide is associated with)” value is listed as “SNB-75 CNS”.

On to RAGSRVQ, for which the “Cell Line (NCI-60 cell line the peptide is associated with)” value is on record as “SF-295 CNS”.

With FFGGSRA, the “Cell Line with which the peptide” value is “K-562-Leukemia”. Still for that read-out and setting: the entry for LIGPGGR is “H322-Lung”. As for AAGAGWR, the “Cell Line (NCI-60 cell line the peptide and its motif are associated with)” value is on record as “OVCAR-4 Ovarian”.

For LSTPGRV, the “Cell Line the peptide is associated with (peptide recovered from phage library selection on this NCI-60 cell line)” value is “UO31 Renal”. Regarding RVDRGSL, the “Cell Line the peptide is associated with (peptide recovered from phage library selection on this NCI-60 cell line)” value is “CAIK-1 Renal”.

On to LQRGVAR, for which the “Cell Line (NCI-60 cell line the peptide and its motif are associated with)” value is on record as “OVCAR-5 Ovarian”. Turning to LRVRYAV, the “Cell Line with which the peptide” value is on record as “H322-Lung”. For the substance LPLGLVS, the “Cell Line the peptide is associated with (peptide recovered from phage library selection on this NCI-60 cell line)” value is recorded as “T-47D Breast”.

For the substance YGLRSLV, the “Cell Line the peptide is associated with (peptide recovered from phage library selection on this NCI-60 cell line)” value was “BT-549 Breast”. In the case of RHGPGVL, the “Cell Line (NCI-60 cell line the peptide and its motif are associated with)” value is given as “OVCAR-3 Ovarian”. For the substance GYSRASD, the “Cell Line (NCI-60 cell line the peptide is associated with)” value was “HT-29 Colon”. Regarding LASLARP, the “Cell Line the peptide is associated with (peptide recovered from phage library selection on this NCI-60 cell line)” value was “T-47D Breast”.

For the substance AGLWPWN, the “Cell Line the peptide is associated with (peptide recovered from phage library selection on this NCI-60 cell line)” value is “CAIK-1 Renal”.

As to GGPGLVM, the “Cell Line (NCI-60 cell line the peptide and its motif are associated with)” value is “OVCAR-4 Ovarian”.

Regarding VVGGRRT, the “Cell Line the peptide is associated with (peptide recovered from phage library selection on this NCI-60 cell line)” value is given as “HS 578 T Breast”. As for GGAGRGA, the “Cell Line (NCI-60 cell line the peptide and its motif are associated with)” value is recorded as “OVCAR-4 Ovarian”. Regarding GAGRTVM, the “Cell Line with which the peptide” value was “SR Leukemia”. As to AGSVYSV, the “Cell Line (NCI-60 cell line the peptide and its motif are associated with)” value was “OVCAR-5 Ovarian”. YGIGVRL: the “Cell Line with which the peptide” value is listed as “H23-Lung”. Turning to LLRAGVR, the “Cell Line the peptide is associated with (peptide recovered from phage library selection on this NCI-60 cell line)” value is “UO31 Renal”. For HVGLLRA, the “Cell Line with which the peptide” value is “Hop-62-Lung”. With TREGGLD, the “Cell Line (NCI-60 cell line the peptide is associated with)” value is listed as “KM-12C Colon”.

Turning to VGRLAKG, the “Cell Line with which the peptide” value is “Hop-62-Lung”. On the same count and under the same terms, the entry for SSRPGSS is “Hop-62-Lung”. For WWGLGWL, the “Cell Line (NCI-60 cell line the peptide is associated with)” value is “HCC-2998-Colon”. Consider DAGSDRR, for which the “Cell Line with which the peptide” value was “EKVX-Lung”. With LRLSSIP, the “Cell Line with which the peptide” value is recorded as “CCRF-CEM Leukemia”. With QLPGLLR, the “Cell Line (NCI-60 cell line the peptide is associated with)” value is listed as “SNB-75 CNS”. Consider GSSWVVD, for which the “Cell Line with which the peptide” value is on record as “A549-Lung”. Same read-out and setting: the entry for AAGREFR is “Hop-62-Lung”; for SEDEGAG it is “H322-Lung”. As to IGLRGEN, the “Cell Line (NCI-60 cell line the peptide is associated with)” value was “SNB-75 CNS”. For GRLYYYR, the “Cell Line with which the peptide” value is “RPMI-8226-Leukemia”. Regarding GAHGVRL, the “Cell Line the peptide is associated with (peptide recovered from phage library selection on this NCI-60 cell line)” value is given as “SN12C Renal”. As to WSGGLNV, the “Cell Line with which the peptide” value was “H322-Lung”.

Turning to TFAGLAQ, the “Cell Line the peptide is associated with (peptide recovered from phage library selection on this NCI-60 cell line)” value is “BT-549 Breast”. Regarding SRYWLRS, the “Cell Line with which the peptide” value is on record as “H522-Lung”. With AAIVGVS, the “Cell Line the peptide is associated with (peptide recovered from phage library selection on this NCI-60 cell line)” value is “MDA-MB-231 Breast”. GSSRVRW: the “Cell Line (NCI-60 cell line the peptide is associated with)” value is “HCT-15 Colon”.

With SSSLAGS, the “Cell Line the peptide is associated with (peptide recovered from phage library selection on this NCI-60 cell line)” value is given as “UO31 Renal”. With LVSTRWA, the “Cell Line the peptide is associated with (peptide recovered from phage library selection on this NCI-60 cell line)” value is given as “RXF393 Renal”.

Consider HRVSESV, for which the “Cell Line (NCI-60 cell line the peptide and its motif are associated with)” value was “OVCAR-5 Ovarian”. Consider VRAVCLM, for which the “Cell Line (NCI-60 cell line the peptide is associated with)” value is recorded as “SNB-75 CNS”. As to GGVSPVD, the “Cell Line with which the peptide” value was “A549-Lung”.

On to GTLGGRV, for which the “Cell Line (NCI-60 cell line the peptide is associated with)” value was “HT-29 Colon”. As for SRKGLRS, the “Cell Line (NCI-60 cell line the peptide and its motif are associated with)” value is listed as 786-0 Renal. With TDLAGLH, the “Cell Line with which the peptide” value is reported as “RPMI-8226-Leukemia”. As to SRYSLRS, the “Cell Line with which the peptide” value is listed as “A549-Lung”. On to GSSLSRP, for which the “Cell Line the peptide is associated with (peptide recovered from phage library selection on this NCI-60 cell line)” value was “RXF393 Renal”.

In the case of GGLSVDL, the “Cell Line with which the peptide” value was “EKVX-Lung”.

Regarding WGRLEST, the “Cell Line the peptide is associated with (peptide recovered from phage library selection on this NCI-60 cell line)” value is reported as “BT-549 Breast”. For YLLRALG, the “Cell Line (NCI-60 cell line the peptide is associated with)” value was “SF-268 CNS”.

In the case of NRSSAKF, the “Cell Line with which the peptide” value is on record as “K-562-Leukemia”. For RYRVSVY, the “Cell Line (NCI-60 cell line the peptide is associated with)” value was “KM-12C Colon”. As to TGRLSAA, the “Cell Line (NCI-60 cell line the peptide and its motif are associated with)” value is “UACC62 Melanoma”. As for GGSRAAE, the “Cell Line with which the peptide” value is given as “H322-Lung”. Take GGSIDCC: the “Cell Line the peptide is associated with (peptide recovered from phage library selection on this NCI-60 cell line)” value was “SN12C Renal”. In the case of RVRGVLD, the “Cell Line the peptide is associated with (peptide recovered from phage library selection on this NCI-60 cell line)” value was “BT-549 Breast”. GLRDGVE: the “Cell Line the peptide is associated with (peptide recovered from phage library selection on this NCI-60 cell line)” value is recorded as “A498 Renal”. LVRVSGR: the “Cell Line with which the peptide” value is “HL-60-Leukemia”. On to GLRPHGA, for which the “Cell Line (NCI-60 cell line the peptide and its motif are associated with)” value was “UACC 257 Melanoma”.
